Results as given in the NIST ThermoML archive (doi:10.1021/je7007654).
Numbers after ± are expanded uncertainties.

Assay: xn = mol fraction of the nth substance listed
Details: 101 kPa, Liquid; for viscosity: Capillary tube (Ostwald / Ubbelohde) method; for speed of sound: Sing-around technique in a fixed-path interferometer

CC(C)CCCC(C)CCCC(C)CCCCC(C)CCCC(C)CCCC(C)C (stereo not given) [2,6,10,15,19,23-hexamethyltetracosane] + CCCCO
Details	speed of sound, 298.15 K [m/s]	speed of sound, 303.15 K [m/s]	speed of sound, 308.15 K [m/s]	viscosity, 298.15 K [mPa·s]	viscosity, 303.15 K [mPa·s]	viscosity, 308.15 K [mPa·s]
x2 = 0	1381.9 ± 1.2	1364.1 ± 1.2	1346.5 ± 1.2	28.26 ± 0.18	22.09 ± 0.14	17.77 ± 0.12
x2 = 0.0451	1379.5 ± 1.2	1361.7 ± 1.2	1343 ± 1.2	26.66 ± 0.17	20.88 ± 0.14	16.81 ± 0.11
x2 = 0.1077	1376.1 ± 1.2	1358.3 ± 1.2	1340.2 ± 1.2	24.69 ± 0.16	19.42 ± 0.12	15.62 ± 0.1
x2 = 0.1346	1374.8 ± 1.2	1356.5 ± 1.2	1338.9 ± 1.2	23.92 ± 0.15	18.86 ± 0.12	15.16 ± 0.097
x2 = 0.1888	1371.7 ± 1.1	1353.8 ± 1.1	1335.9 ± 1.1	22.48 ± 0.14	17.78 ± 0.11	14.29 ± 0.09
x2 = 0.2231	1369.7 ± 1.1	1351.8 ± 1.1	1333.9 ± 1.1	21.62 ± 0.13	17.14 ± 0.11	13.79 ± 0.087
x2 = 0.3059	1365.1 ± 1.1	1347.1 ± 1.1	1329.3 ± 1.1	19.67 ± 0.12	15.64 ± 0.095	12.62 ± 0.078
x2 = 0.4052	1358.8 ± 1.1	1340.8 ± 1	1322.8 ± 1	17.39 ± 0.1	13.9 ± 0.083	11.38 ± 0.069
x2 = 0.5039	1350.9 ± 1	1332.6 ± 1	1314.8 ± 1	15.11 ± 0.087	12.14 ± 0.071	9.903 ± 0.059
x2 = 0.6118	1340.5 ± 1	1322.5 ± 1	1304.6 ± 1	12.47 ± 0.071	10.12 ± 0.059	8.307 ± 0.049
x2 = 0.7056	1328.8 ± 0.9	1310.9 ± 0.9	1293.1 ± 0.9	10.06 ± 0.057	8.276 ± 0.048	6.824 ± 0.041
x2 = 0.7998	1312.5 ± 0.9	1294.8 ± 0.9	1277.1 ± 0.9	7.573 ± 0.044	6.348 ± 0.038	5.267 ± 0.032
x2 = 0.8546	1299.5 ± 0.9	1281.8 ± 0.9	1264.2 ± 0.9	6.128 ± 0.036	5.2 ± 0.032	4.344 ± 0.027
x2 = 0.9035	1284.3 ± 0.9	1266.8 ± 0.9	1249.1 ± 0.8	4.873 ± 0.03	4.186 ± 0.026	3.527 ± 0.022
x2 = 0.9669	1258.5 ± 0.8	1241.4 ± 0.8	1224.4 ± 0.8	3.325 ± 0.021	2.912 ± 0.018	2.497 ± 0.016

mass density [kg/m3], Vibrating tube method
Details	298.15 K	303.15 K	308.15 K
x2 = 0	805.122 ± 0.23	801.912 ± 0.24	798.709 ± 0.24
x2 = 0.0451	804.881 ± 0.23	801.658 ± 0.23	798.397 ± 0.23
x2 = 0.1077	804.649 ± 0.22	801.402 ± 0.22	798.084 ± 0.22
x2 = 0.1346	804.573 ± 0.22	801.318 ± 0.22	797.991 ± 0.22
x2 = 0.1888	804.447 ± 0.21	801.16 ± 0.21	797.826 ± 0.21
x2 = 0.2231	804.377 ± 0.21	801.07 ± 0.21	797.731 ± 0.21
x2 = 0.3059	804.273 ± 0.2	800.898 ± 0.2	797.543 ± 0.2
x2 = 0.4052	804.097 ± 0.19	800.714 ± 0.19	797.32 ± 0.19
x2 = 0.5039	803.949 ± 0.18	800.528 ± 0.18	797.098 ± 0.18
x2 = 0.6118	803.817 ± 0.17	800.347 ± 0.17	796.857 ± 0.17
x2 = 0.7056	803.732 ± 0.16	800.179 ± 0.16	796.621 ± 0.16
x2 = 0.7998	803.836 ± 0.15	800.194 ± 0.15	796.558 ± 0.15
x2 = 0.8546	803.989 ± 0.15	800.335 ± 0.15	796.66 ± 0.15
x2 = 0.9035	804.336 ± 0.15	800.708 ± 0.15	796.979 ± 0.15
x2 = 0.9669	805.126 ± 0.14	801.896 ± 0.14	798.06 ± 0.14

CCCCCCCCCCCCCCCC [hexadecane] + CCCCO
Details	mass density, 298.15 K [kg/m3]	mass density, 303.15 K [kg/m3]	mass density, 308.15 K [kg/m3]	speed of sound, 298.15 K [m/s]	speed of sound, 303.15 K [m/s]	speed of sound, 308.15 K [m/s]	viscosity, 298.15 K [mPa·s]	viscosity, 303.15 K [mPa·s]	viscosity, 308.15 K [mPa·s]
x2 = 0	770.456 ± 0.84	766.981 ± 0.85	763.52 ± 0.86	1338.6 ± 1.2	1320 ± 1.2	1301.7 ± 1.2	3.041 ± 0.023	2.706 ± 0.02	2.409 ± 0.018
x2 = 0.0899	770.953 ± 0.83	767.402 ± 0.84	763.863 ± 0.84	1332.4 ± 1.2	1313.4 ± 1.2	1294.9 ± 1.2	2.957 ± 0.022	2.6 ± 0.019	2.302 ± 0.017
x2 = 0.1048	771.053 ± 0.83	767.499 ± 0.84	763.961 ± 0.84	1331.2 ± 1.2	1312.2 ± 1.2	1293.8 ± 1.2	2.937 ± 0.022	2.582 ± 0.019	2.287 ± 0.017
x2 = 0.1516	771.517 ± 0.82	767.916 ± 0.83	764.36 ± 0.84	1328.2 ± 1.1	1309.2 ± 1.1	1290.3 ± 1.1	2.899 ± 0.021	2.546 ± 0.019	2.254 ± 0.017
x2 = 0.2017	772.074 ± 0.82	768.482 ± 0.82	764.874 ± 0.83	1324.9 ± 1.1	1305.8 ± 1.1	1287.3 ± 1.1	2.846 ± 0.02	2.515 ± 0.018	2.223 ± 0.016
x2 = 0.2494	772.705 ± 0.81	769.093 ± 0.82	765.462 ± 0.82	1321.9 ± 1.1	1302.9 ± 1.1	1284.4 ± 1.1	2.811 ± 0.02	2.478 ± 0.018	2.189 ± 0.016
x2 = 0.3382	774.083 ± 0.8	770.439 ± 0.81	766.796 ± 0.81	1315.8 ± 1.1	1296.9 ± 1.1	1278.2 ± 1.1	2.753 ± 0.019	2.432 ± 0.017	2.146 ± 0.016
x2 = 0.4147	775.524 ± 0.79	771.883 ± 0.8	768.201 ± 0.8	1310.6 ± 1	1291.6 ± 1	1273.1 ± 1	2.704 ± 0.019	2.394 ± 0.017	2.112 ± 0.015
x2 = 0.5057	777.651 ± 0.77	773.952 ± 0.78	770.24 ± 0.79	1303.9 ± 1	1285.5 ± 1	1266.9 ± 1	2.665 ± 0.018	2.344 ± 0.016	2.068 ± 0.015
x2 = 0.5845	779.95 ± 0.76	776.223 ± 0.77	772.472 ± 0.78	1297.6 ± 1	1279.2 ± 1	1260.9 ± 1	2.635 ± 0.018	2.306 ± 0.016	2.029 ± 0.014
x2 = 0.698	784.249 ± 0.74	780.452 ± 0.75	776.653 ± 0.76	1287.4 ± 0.9	1269.2 ± 0.9	1251.1 ± 0.9	2.594 ± 0.017	2.256 ± 0.015	1.99 ± 0.014
x2 = 0.7945	789.246 ± 0.72	785.434 ± 0.73	781.597 ± 0.74	1276.8 ± 0.9	1258.5 ± 0.9	1240.6 ± 0.9	2.568 ± 0.016	2.223 ± 0.015	1.96 ± 0.013
x2 = 0.8497	792.847 ± 0.71	789.093 ± 0.72	785.172 ± 0.73	1269.5 ± 0.9	1251.4 ± 0.9	1233.7 ± 0.9	2.558 ± 0.016	2.218 ± 0.015	1.953 ± 0.013
x2 = 0.8963	796.346 ± 0.7	792.717 ± 0.71	788.76 ± 0.72	1262.7 ± 0.9	1244.8 ± 0.8	1227.4 ± 0.8	2.551 ± 0.016	2.219 ± 0.014	1.948 ± 0.013
x2 = 0.953	801.232 ± 0.69	797.973 ± 0.69	794.054 ± 0.7	1252.3 ± 0.8	1235.8 ± 0.8	1218.5 ± 0.8	2.556 ± 0.016	2.228 ± 0.014	1.953 ± 0.013
